Laboratory results published in PubChem BioAssay AID1794813.
Values joined by “and” are separate entries in the source; they are usually repeats but may differ in a detail not shown here. Identical values can stand only once.

Target: Sodium-dependent phosphate transport protein 2A (Homo sapiens) (UniProt Q06495)
Experiment: PubChem AID 1794813
Details: HEK293 JumpIn SLC34A1, FLIPR membrane potential dye

Sequence of Sodium-dependent phosphate transport protein 2A (Homo sapiens) (Q06495 whole entry, looked up): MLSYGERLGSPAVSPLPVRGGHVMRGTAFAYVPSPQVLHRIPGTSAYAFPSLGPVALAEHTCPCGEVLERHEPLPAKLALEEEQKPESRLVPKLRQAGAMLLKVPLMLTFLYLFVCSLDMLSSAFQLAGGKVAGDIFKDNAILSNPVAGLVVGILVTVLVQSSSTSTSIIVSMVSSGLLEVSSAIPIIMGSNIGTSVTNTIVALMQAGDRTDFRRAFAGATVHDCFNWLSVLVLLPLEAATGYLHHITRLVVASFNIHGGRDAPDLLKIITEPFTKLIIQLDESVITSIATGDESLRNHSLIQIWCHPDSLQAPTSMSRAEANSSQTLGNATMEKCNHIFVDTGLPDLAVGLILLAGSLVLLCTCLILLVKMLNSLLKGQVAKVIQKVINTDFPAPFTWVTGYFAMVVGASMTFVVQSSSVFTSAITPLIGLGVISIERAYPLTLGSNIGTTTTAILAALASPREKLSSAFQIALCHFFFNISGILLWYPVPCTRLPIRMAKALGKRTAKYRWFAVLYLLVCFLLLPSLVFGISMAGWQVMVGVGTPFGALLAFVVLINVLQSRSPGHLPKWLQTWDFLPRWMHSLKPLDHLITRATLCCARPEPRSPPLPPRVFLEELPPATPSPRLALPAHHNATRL

EC50 (substrate-evoked depolarization, activation): 32 µM and 39 µM
SMILES: O=P(O)(O)O
